This is an account of results in patent publication US20150038591A1, “Compounds, compositions and methods for the treatment of tauopathies” (PROTEOTECH INC., priority 2002, published 2015).

For the first assay, the target named is T1, aggregated Tau-441 (Homo sapiens, UniProt P10636).
T1 construct: purchased rPeptide
T1 sequence (P10636 1-441 isoform P10636-8): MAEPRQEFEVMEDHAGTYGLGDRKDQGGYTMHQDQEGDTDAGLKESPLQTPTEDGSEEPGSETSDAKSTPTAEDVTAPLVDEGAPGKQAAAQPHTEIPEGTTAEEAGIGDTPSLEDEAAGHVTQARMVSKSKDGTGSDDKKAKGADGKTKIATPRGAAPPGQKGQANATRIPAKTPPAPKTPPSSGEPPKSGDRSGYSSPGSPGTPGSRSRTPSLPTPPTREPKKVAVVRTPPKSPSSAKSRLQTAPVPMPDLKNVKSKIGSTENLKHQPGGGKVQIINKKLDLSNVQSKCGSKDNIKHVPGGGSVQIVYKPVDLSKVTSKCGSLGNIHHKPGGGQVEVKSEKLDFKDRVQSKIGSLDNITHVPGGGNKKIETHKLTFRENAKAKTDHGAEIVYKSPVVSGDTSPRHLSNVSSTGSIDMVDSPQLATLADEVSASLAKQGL
Put plainly: Thioflavin T fluorometry, dissolution/disruption/inhibition of preformed Tau aggregates. The conditions noted are these: Tau:test compound wt/wt ratio 1:0.001; 3 days at 37° C. Type of assay: biochemical. Here is the method:
Thioflavin T binds specifically to aggregated Tau or Tau tangles, and this binding produces a fluorescence enhancement at 485 nm that is directly proportional to the amount of aggregated Tau. The higher the fluorescence, the greater the amount of aggregated Tau.
In this study, Tau-441 or TauRD was pre-fibrillized or aggregated by combining with Heparin (SIGMA) at 1:1 wt/wt, then incubation at 37° C. and shaking at 1400 rpm for 8 days. […] Following 3-days of co-incubation, 50 μl of each incubation mixture was transferred into a 96-well microtiter plate containing 150 μl of distilled water and 50 μl of a Thioflavin T solution (i.e. […] Thioflavin T in 250 mM phosphate buffer, pH 6.8). The fluorescence was read at 485 nm (444 nm excitation wavelength) using an ELISA plate fluorometer after subtraction with buffer alone or compound alone, as blank.
For `Oc1ccc(Cc2ccc(O)c(O)c2)cc1O` [Compound 3, 3,4,3′,4′-Tetrahydroxydiphenylmethane], the “% dissolution/disruption/inhibition Tau (result ± S.D.)” value amounted to 17.0 ± 2.49%.
As to `Oc1ccc(CCc2ccc(O)c(O)c2)cc1O` [Compound 4, 1,2-bis(3,4-dihydroxyphenyl)ethane], the “% dissolution/disruption/inhibition Tau (result ± S.D.)” value came out at 19.3 ± 0.00%.
Regarding `O=C(Nc1ccc(O)c(O)c1)C(=O)Nc1ccc(O)c(O)c1` [Compound 63, oxalic acid bis(3,4-dihydroxyanilide)], the “% dissolution/disruption/inhibition Tau (result ± S.D.)” value turned out to be 11.8 ± 8.06%.
For `O=C(Nc1ccc(O)c(O)c1)Nc1ccc(O)c(O)c1` [Compound 76, 1,3-Bis(3,4-dihydroxyphenyl)urea], the “% dissolution/disruption/inhibition Tau (result ± S.D.)” value is 17.4 ± 4.88%.

Still in this assay, the particulars now being: Tau:test compound wt/wt ratio 1:0.01; 3 days at 37° C.
On to `Oc1ccc(Cc2ccc(O)c(O)c2)cc1O` [Compound 3, 3,4,3′,4′-Tetrahydroxydiphenylmethane], for which the “% dissolution/disruption/inhibition Tau (result ± S.D.)” value was found to be 54.1 ± 2.62%.
Same read-out and setting: to `Oc1ccc(CCc2ccc(O)c(O)c2)cc1O` [Compound 4, 1,2-bis(3,4-dihydroxyphenyl)ethane] belongs 68.0 ± 1.71%.
As to `O=C(Nc1ccc(O)c(O)c1)C(=O)Nc1ccc(O)c(O)c1` [Compound 63, oxalic acid bis(3,4-dihydroxyanilide)], the “% dissolution/disruption/inhibition Tau (result ± S.D.)” value is reported as 16.5 ± 2.49%.
Regarding `O=C(Nc1ccc(O)c(O)c1)Nc1ccc(O)c(O)c1` [Compound 76, 1,3-Bis(3,4-dihydroxyphenyl)urea], the “% dissolution/disruption/inhibition Tau (result ± S.D.)” value was 54.1 ± 2.62%.

The same assay, now with this note: Tau:test compound wt/wt ratio 1:0.1; 3 days at 37° C.
As for `Oc1ccc(Cc2ccc(O)c(O)c2)cc1O` [Compound 3, 3,4,3′,4′-Tetrahydroxydiphenylmethane], the “% dissolution/disruption/inhibition Tau (result ± S.D.)” value is given as 89.2 ± 1.96%.
For `Oc1ccc(CCc2ccc(O)c(O)c2)cc1O` [Compound 4, 1,2-bis(3,4-dihydroxyphenyl)ethane], the “% dissolution/disruption/inhibition Tau (result ± S.D.)” value is reported as 92.8 ± 2.59%.
Same read-out and setting: to `O=C(Nc1ccc(O)c(O)c1)C(=O)Nc1ccc(O)c(O)c1` [Compound 63, oxalic acid bis(3,4-dihydroxyanilide)] belongs 34.7 ± 1.69%; to `O=C(Nc1ccc(O)c(O)c1)Nc1ccc(O)c(O)c1` [Compound 76, 1,3-Bis(3,4-dihydroxyphenyl)urea], 91.2 ± 0.56%.

Still in this assay, the particulars now being: Tau:test compound wt/wt ratio 1:1; 3 days at 37° C.
`Oc1ccc(Cc2ccc(O)c(O)c2)cc1O` [Compound 3, 3,4,3′,4′-Tetrahydroxydiphenylmethane]: the “% dissolution/disruption/inhibition Tau (result ± S.D.)” value was 91.2 ± 2.59%.
Take `Oc1ccc(CCc2ccc(O)c(O)c2)cc1O` [Compound 4, 1,2-bis(3,4-dihydroxyphenyl)ethane]: the “% dissolution/disruption/inhibition Tau (result ± S.D.)” value was 93.5 ± 4.42%.
In the case of `O=C(Nc1ccc(O)c(O)c1)C(=O)Nc1ccc(O)c(O)c1` [Compound 63, oxalic acid bis(3,4-dihydroxyanilide)], the “% dissolution/disruption/inhibition Tau (result ± S.D.)” value was found to be 77.8 ± 1.13%.
On the same count and under the same terms, as for `O=C(Nc1ccc(O)c(O)c1)Nc1ccc(O)c(O)c1` [Compound 76, 1,3-Bis(3,4-dihydroxyphenyl)urea], the figure is 94.1 ± 2.99%.

For a further assay, the target named is Tau aggregates (Homo sapiens, UniProt P10636). Put plainly: Thioflavin S fluorometry, dissolution/disruption/inhibition of Tau aggregates. Type of assay: biochemical.
Chain of Tau aggregates (P10636 1-441 isoform P10636-8): as above
Conditions: not given
Here is the method: In contrast to quantitation of Aβ fibrils, where ThioT is used, it was shown for tau aggregates that ThioS is more reproducible and independent of solvent characteristics. […] (Friedhoff, P et al. (1998) Biochem 10223-10230)
The Thio S assay involves the dilution of 500 μM ThioS stock 1:1 with PBS. Pipette 25 μl of this into the wells of a 96-well assay plate. Add 50 μl samples and 50 μl PBS and mix well. Read plates immediately on a fluorometer with the excitation set at 444 nm and emission set at 485 nm. […] Log transformed values are analyzed using “Nonlinear regression (curve fit) log(inhibitor) vs. normalized response—Variable slope” analysis.
In general, IC50 refers to the point on the concentration scale where inhibition reaches its midpoint. The low end stands for greater potency, the high end for weaker potency. In turn, `Oc1ccc(Cc2ccc(O)c(O)c2)cc1O` [Compound 3, 3,4,3′,4′-Tetrahydroxydiphenylmethane] gave an IC50 of 32.4 µM.
Compound `Oc1ccc(CCc2ccc(O)c(O)c2)cc1O` [Compound 4, 1,2-bis(3,4-dihydroxyphenyl)ethane] had a concentration for half-maximal inhibition (IC50) of 10.8 µM.
For `O=C(NCCc1ccc(O)c(O)c1)Nc1ccc(O)c(O)c1` [Compound 78, 1-(3,4-Dihydroxyphenyl)-3-(3,4-dihydroxyphenethyl)urea], the IC50 came to 5.26 µM.
Compound `O=C(Nc1ccc(O)c(O)c1)Nc1ccc(O)c(O)c1` [Compound 76, 1,3-Bis(3,4-dihydroxyphenyl)urea] showed an IC50 of 3.95 µM. The IC50 values of the last two compounds are within 1.5-fold of each other.
